In general, logP refers to a log measure of how a compound divides between an organic and an aqueous phase. High values mean a more lipophilic compound, low ones a more hydrophilic compound.

The data set can be described thus: log P determination by HPLC on reverse-phase column (EEC Directive 79/831 Annex V.A8). Type of data set: physicochemical. Particulars: HPLC on reverse-phase column. Here is the method: The log P values stated in the foregoing tables and preparation examples are determined in accordance with EEC Directive 79/831 Annex V.A8 by means of HPLC (High Performance Liquid Chromatography) on a reverse-phase column (C 18). Temperature: 43° C.
The determination by LC-MS in the acidic range takes place at a pH of 2.7 using 0.1% aqueous formic acid and acetonitrile (containing 0.1% formic acid) as eluents; linear gradient from 10% acetonitrile to 95% acetonitrile.
Calibration is with unbranched alkan-2-ones (having 3 to 16 carbon atoms) of known log P value (log P values determined from the retention times by linear interpolation between two successive alkanones).
As to `CNC(=O)c1cc(Cl)cc(C)c1NC(=O)c1cc(Cn2nnn(-c3ccc(C(F)(F)F)cc3)c2=O)nn1-c1ncccc1Cl` [I-1-88], the logP stood at 3.61.
The compound `Cc1cc(Cl)cc(C(=O)NC(C)C)c1NC(=O)c1cc(Cn2nnn(-c3ccc(C(F)(F)F)cc3)c2=O)nn1-c1ncccc1Cl` [I-1-89] came in with a logP of 3.96.
The compound `CNC(=O)c1cc(Cl)cc(C)c1NC(=O)c1cc(Cn2nnn(-c3cc(C(F)(F)F)cc(C(F)(F)F)c3)c2=O)nn1-c1ncccc1Cl` [I-1-90] registered a logP of 4.08.
As for `Cc1cc(Cl)cc(C(=O)NC(C)C)c1NC(=O)c1cc(Cn2nnn(-c3cc(C(F)(F)F)cc(C(F)(F)F)c3)c2=O)nn1-c1ncccc1Cl` [I-1-91], the figure is 4.51; as for `Cc1cccc(C(=O)NC(C)C[S+](C)[O-])c1NC(=O)c1cc(Cn2nc(C(F)(F)F)nc2C(F)(F)F)nn1-c1ncccc1Cl` (stereo not drawn) [I-1-92], 2.65.
On to `Cc1cc(Br)cc(C(=O)NC2CC2)c1NC(=O)c1cc(Cn2cc(Br)c(C(F)(F)F)n2)nn1-c1ncccc1Cl` [I-1-93], for which the logP turned out to be 3.69.
As for `Cc1cc(Cl)cc(C(N)=O)c1NC(=O)c1cc(Cn2nnn(-c3cc(C(F)(F)F)cc(C(F)(F)F)c3)c2=O)nn1-c1ncccc1Cl` [I-1-94], the figure is 3.85.
As for `Cc1cc(Cl)cc(C(=O)NCC#N)c1NC(=O)c1cc(Cn2nnn(-c3cc(C(F)(F)F)cc(C(F)(F)F)c3)c2=O)nn1-c1ncccc1Cl` [I-1-95], the figure is 4.01; as for `CNC(=O)c1cc(Cl)cc(C)c1NC(=O)c1cc(Cn2nnn(-c3cc(Cl)cc(Cl)c3)c2=O)nn1-c1ncccc1Cl` [I-1-96], 3.90; as for `Cc1cc(Br)cc(C(=O)NCC#N)c1NC(=O)c1cc(Cn2cc(Br)c(C(F)(F)F)n2)nn1-c1ncccc1Cl` [I-1-97], 3.45.
In turn, `CSCC(C)(C)NC(=O)c1cc(Br)cc(C)c1NC(=O)c1cc(Cn2cc(Br)c(C(F)(F)F)n2)nn1-c1ncccc1Cl` [I-1-98] showed a logP of 4.47.
As to `CSCC(C)NC(=O)c1cc(Br)cc(C)c1NC(=O)c1cc(Cn2cc(Br)c(C(F)(F)F)n2)nn1-c1ncccc1Cl` (stereo not drawn) [I-1-99], the logP is on record as 4.10.
Take `Cc1cc(Br)cc(C(N)=O)c1NC(=O)c1cc(Cn2cc(Br)c(C(F)(F)F)n2)nn1-c1ncccc1Cl` [I-1-100]: the lipophilicity (logP) was 3.24.
For the compound `Cc1cc(Br)cc(C(=O)NC(C)CS(C)(=O)=O)c1NC(=O)c1cc(Cn2cc(Br)c(C(F)(F)F)n2)nn1-c1ncccc1Cl` (stereo not drawn) [I-1-101], the logP is listed as 3.32. The logP values of the last two compounds are within 0.2 log units of each other.
`CNC(=O)c1cc(Cl)cc(C)c1NC(=O)c1cc(Cn2ccc(Cl)n2)nn1-c1ncccc1Cl` [I-1-102] returned a logP of 2.51.
`Cc1cc(Cl)cc(C(=O)NC(C)C)c1NC(=O)c1cc(Cn2ccc(Cl)n2)nn1-c1ncccc1Cl` [I-1-103] showed a logP of 2.96.
The value for `CNC(=O)c1cc(Cl)cc(C)c1NC(=O)c1cc(Cn2nnc(-c3ccc(C(F)(F)F)cc3)n2)nn1-c1ncccc1Cl` [I-1-104] was 3.79; that for `Cc1cc(Cl)cc(C(=O)NC(C)C)c1NC(=O)c1cc(Cn2nnc(-c3ccc(C(F)(F)F)cc3)n2)nn1-c1ncccc1Cl` [I-1-105] was 4.14; that for `Cc1cc(Cl)cc(C(N)=O)c1NC(=O)c1cc(Cn2nnc(-c3ccc(C(F)(F)F)cc3)n2)nn1-c1ncccc1Cl` [I-1-106] was 3.46.
The value for `Cc1cc(Cl)cc(C(=O)NCC#N)c1NC(=O)c1cc(Cn2nnc(-c3ccc(C(F)(F)F)cc3)n2)nn1-c1ncccc1Cl` [I-1-107] was 3.65.
As for `CNC(=O)c1cc(Cl)cc(C)c1NC(=O)c1cc(Cn2nnn(-c3ccc(C(F)(F)F)c(Cl)c3)c2=O)nn1-c1ncccc1Cl` [I-1-108], the figure is 3.90; as for `CNC(=O)c1cc(Cl)cc(C)c1NC(=O)c1cc(Cn2nnn(-c3ccc(C(F)(F)F)cc3Cl)c2=O)nn1-c1ncccc1Cl` [I-1-109], 3.51; as for `CNC(=O)c1cc(Cl)cc(C)c1NC(=O)c1cc(Cn2cc(I)c(I)n2)nn1-c1ncccc1Cl` [I-1-110], 3.13.
With `Cc1cc(Cl)cc(C(=O)NC(C)C)c1NC(=O)c1cc(Cn2cc(I)c(I)n2)nn1-c1ncccc1Cl` [I-1-111], the logP stood at 3.58.
`CNC(=O)c1cc(Cl)cc(C)c1NC(=O)c1cc(Cn2nnc(-c3cc(C(F)(F)F)cc(C(F)(F)F)c3)n2)nn1-c1ncccc1Cl` [I-1-112] registered a logP of 4.28.
Turning to `Cc1cc(Br)cc(C(=O)NC(C)C[S+](C)[O-])c1NC(=O)c1cc(Cn2cc(Br)c(C(F)(F)F)n2)nn1-c1ncccc1Cl` (stereo not drawn) [I-1-113], the logP was 2.97.
The value for `Cc1cc(Cl)cc(C(N)=O)c1NC(=O)c1cc(Cn2nnc(-c3cc(C(F)(F)F)cc(C(F)(F)F)c3)n2)nn1-c1ncccc1Cl` [I-1-114] was 4.03.
In turn, `Cc1cc(Cl)cc(C(=O)NC(C)C)c1NC(=O)c1cc(Cn2nnn(C)c2=O)nn1-c1ncccc1Cl` [I-1-115] displayed a logP of 2.31.
`CNC(=O)c1cc(Cl)cc(C)c1NC(=O)c1cc(Cn2nc(C(F)(F)F)n(C)c2=O)nn1-c1ncccc1Cl` [I-1-116]: the logP was found to be 2.44.
As to `Cc1cc(Cl)cc(C(=O)NC(C)C)c1NC(=O)c1cc(Cn2nc(C(F)(F)F)n(C)c2=O)nn1-c1ncccc1Cl` [I-1-117], the logP was determined as 2.85.
Regarding `CNC(=O)c1cc(Cl)cc(C)c1NC(=O)c1cc(Cn2nc(C(F)(F)F)n(-c3ccccc3)c2=O)nn1-c1ncccc1Cl` [I-1-118], the logP stood at 3.10.
As for `Cc1cc(Cl)cc(C(=O)NC(C)C)c1NC(=O)c1cc(Cn2nc(C(F)(F)F)n(-c3ccccc3)c2=O)nn1-c1ncccc1Cl` [I-1-119], the figure is 3.54.
As for `Cc1cc(Cl)cc(C(=O)NC(C)CS(C)(=N)=O)c1NC(=O)c1cc(Cn2nc(C(F)(F)F)nc2C(F)(F)F)nn1-c1ncccc1Cl` (stereo not drawn) [I-1-120], the figure is 2.75; as for `Cc1cc(Br)cc(C(=O)NC(C)(C)CS(C)(=O)=O)c1NC(=O)c1cc(Cn2cc(Br)c(C(F)(F)F)n2)nn1-c1ncccc1Cl` [I-1-121], 3.57.
The value for `CNC(=O)c1cc(Cl)cc(C)c1NC(=O)c1cc(Cn2nnn(CC(F)(F)F)c2=O)nn1-c1ncccc1Cl` [I-1-122] was 2.51; that for `Cc1cc(Cl)cc(C(=O)NC(C)C)c1NC(=O)c1cc(Cn2nnn(CC(F)(F)F)c2=O)nn1-c1ncccc1Cl` [I-1-123] was 2.92; that for `CNC(=O)c1cc(Cl)cc(C)c1NC(=O)c1cc(Cn2ccc(Br)n2)nn1-c1ncccc1Cl` [I-1-125] was 2.56.
Consider `Cc1cc(Cl)cc(C(=O)NC(C)C)c1NC(=O)c1cc(Cn2nc(C(F)(F)F)n(C3CC3)c2=O)nn1-c1ncccc1Cl` [I-1-126], for which the logP is recorded as 3.18.
`CNC(=O)c1cc(Cl)cc(C)c1NC(=O)c1cc(Cn2nc(C(F)(F)F)n(C3CC3)c2=O)nn1-c1ncccc1Cl` [I-1-127]: the logP stood at 2.74.
Compound `Cc1cc(Cl)cc(C(=O)NC(C)(C)C[S+](C)[O-])c1NC(=O)c1cc(Cn2cc(Br)c(C(F)(F)F)n2)nn1-c1ncccc1Cl` (stereo not drawn) [I-1-128] registered a logP of 3.25.
In turn, `Cc1cc(Cl)cc(C(=O)N[C@@H](C)CS(C)(=O)=O)c1NC(=O)c1cc(Cn2nc(C(F)(F)F)nc2C(F)(F)F)nn1-c1ncccc1Cl` [I-1-129] displayed a log partition coefficient (logP) of 3.27.
On to `CSC[C@H](C)NC(=O)c1cc(Cl)cc(C)c1NC(=O)c1cc(Cn2cc(Br)c(C(F)(F)F)n2)nn1-c1ncccc1Cl` [I-1-130], for which the logP was determined as 4.11.

For the origin of these results see US8101550B2, “Anthranilic acid diamide derivative with hetero-aromatic and hetero-cyclic substituents” (Bayer Cropscience AG, priority 2006, dated 2012).
